US11766443B2, “Cyclopentathiophene carboxamide derivatives as platelet activating factor receptor antagonists” (Boehringer Ingelheim International GmbH, priority 2021, dated 2023)
In brackets after ≈: the same amount, converted by molar mass.

Legend:
human PAFR = target: T1, human PAFR (Homo sapiens, UniProt P25105); assay: cellular HTRF IP1 endpoint assay: inhibition of PAFR activation by PAF C-16 ligand; format: cell-based; details: HEK293 cells overexpressing human PAFR; PAF ligand 11 nM
T1 construct: expressed in transfected cells; host or cells: HEK293
Description: The ability of compounds of formula (I.0) to inhibit the activation of the PAF receptor (PAFR) by the PAF C-16 ligand (PAF) is determined using the following cellular HTRF IP1 assay (IP1 Gq assay kit from Cisbio, Cat. no.: 62IP1APEJ) in assay buffer (1×HBSS, 20 mM Hepes, pH 7.4, 50 mM LiCl and containing 0.1% (w/v) BSA):
HEK293 cells overexpressing human PAFR (produced in-house) are seeded into a Poly-D-Lysine coated 384 well white cell culture microtiter assay plate with lid (15.000 cells per well). Subsequently, the plates are incubated over night at 37° C./5% CO2. On the next day, cells are being washed and subsequently, various concentrations of the test compounds (compounds in 100% DMSO; final concentration of DMSO in wells is 1%) are added to the assay plate via Echo 555 acoustic liquid handler. Plates are then incubated with lid for 90 minutes at 37° C./5% CO2. Thereafter, PAF ligand (Cayman Chemical Company, Item no.: 60900) is added at a final concentration of 11 nM. Plates are then incubated with lid for 60 minutes at 37° C./5% CO2. Then, 5 μl per well of Anti-IP1-Anti body-Cryptate solution and 5 μL per well of IP1-d2 solution are added to all wells of the plate and the plate is incubated for another 60 minutes light protected at room temperature. The emissions at 620 nm and 665 nm (Excitation wavelength: 320 nm) are measured using an Envision Reader (PerkinElmer).

[1] = aqueous solubility in buffer (from DMSO stock, 24 h shaking, LC-UV); details: pH 2.2, aqueous buffer, kinetic from dmso stock
Description: (§1) The aqueous solubility of the test compound is determined by comparing the amount dissolved in buffer to the amount in an ACN/water (1/1) solution. Starting from a 10 mM DMSO stock solution aliquots are diluted with ACN/water (1/1) or buffer, respectively. After 24 h of shaking, the solutions are filtrated and analyzed by LC-UV. The amount dissolved in buffer is compared to the amount in the ACN solution.
(§2) Solubility will usually be measured from 0.001 to 0.125 mg/mL at a DMSO concentration of 2.5%. If more than 90% of the compound is dissolved in buffer, the value is marked with “>”.

[2] = chemical stability in acidic aqueous media (pH ca. 1.2), HPLC recovery; format: physicochemical; details: acetonitrile/0.1 M aqueous HCl 2:3, pH ca. 1.2, 37° C.
Description: Degradation studies are used to simulate chemical stability of compounds in the acidic part of the gastro intestinal tract. The compounds of the invention show high chemical stability in acidic aqueous media (pH value ca. 1.2) what makes their application as medical drugs to treat human diseases less restricted and troublesome.
The chemical stability of the compounds of the invention at pH value of ca. 1.2 is determined as follows: Compound is dissolved in an HPLC vial in a mixture of acetonitrile/0.1 M aqueous HCl (ratio: 2:3; pH ca. 1.2) to get a concentration of approximately 0.25 mg/ml. The vial is then transferred into an HPLC autosampler system and maintained at a temperature of 37° C. A first sample is taken and injected immediately into a standard HPLC system with a UV DAD detector. A further samples is injected after 24 hours. Amount of degraded compound is measured by determining the recovery rate of compound [%] for the 24 h injection using an HPLC standard gradient method. Therefore the peak area of the main peak for the first injection (AUt0) is determined and set as 100%. Peak area of the main peak is determined also for the 24 h injection (AU24 h) and expressed as fraction of (AU24 h)/(AUt0)[%].

physchem = details: pH 2.2, aqueous buffer, kinetic from dmso stock
Description: as §1, §2

T1 sequence (P25105 whole entry): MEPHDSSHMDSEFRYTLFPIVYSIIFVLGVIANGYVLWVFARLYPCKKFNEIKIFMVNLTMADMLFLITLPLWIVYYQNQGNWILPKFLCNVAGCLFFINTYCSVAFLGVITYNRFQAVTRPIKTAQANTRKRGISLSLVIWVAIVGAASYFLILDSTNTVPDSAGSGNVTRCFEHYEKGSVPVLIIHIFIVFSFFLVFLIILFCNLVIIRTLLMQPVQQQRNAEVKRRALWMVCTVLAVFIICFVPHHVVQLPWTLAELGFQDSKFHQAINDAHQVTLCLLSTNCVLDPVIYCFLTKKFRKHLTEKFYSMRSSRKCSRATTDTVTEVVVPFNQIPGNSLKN

SMILES | IC50 (human PAFR) | solubility at 24 h [1] | Amount of degradation after 24 h [2] | solubility at 24 h (physchem)
Cc1nnc2n1-c1sc3c(c1[C@H](c1ccccc1Cl)NC2)C[C@H](C(=O)N1CCOCC1)C3 [Example 2, (9R,13S)-9-(2-Chlorophenyl)-3-methyl-13-(morpholine-4-carbonyl)-16-thia-2,4,5,8-tetraazatetracyclo[8.6.0.0^2,6.0^11,15]-hexadeca-1(10),3,5,11(15)-tetraene] | 30 nM | > 117 µg/mL | 1% | –
Cc1nnc2n1-c1sc3c(c1[C@H](c1ccccc1Cl)NC2)C[C@H](C(=O)NCCOC(F)(F)F)C3 [Example 17] | 2.8 nM | > 114 µg/mL | 2% | –
CCCNC(=O)[C@@H]1Cc2sc3c(c2C1)[C@H](c1ccccc1Cl)NCc1nnc(C)n1-3 [Example 19] | 3 nM | > 111 µg/mL | 3% | –
Cc1nnc2n1-c1sc3c(c1[C@H](c1ccccc1Cl)NC2)C[C@H](C(=O)N1CC2CC1C2)C3 [Example 21] | 9.1 nM | > 105 µg/mL | 1% | –
Cc1nnc2n1-c1sc3c(c1[C@H](c1ccccc1Cl)NC2)C[C@H](C(=O)N1CCOC(C)(C)C1)C3 [Example 26] | 4.9 nM | > 136 µg/mL | 2.5%^ | –
Cc1nnc2n1-c1sc3c(c1[C@H](c1ccccc1Cl)NC2)C[C@H](C(=O)NC1CCC1)C3 [Example 28] | 1.7 nM | > 142 µg/mL | 0.5%^ | –
COc1ccc(Cl)c(C2NCc3nnc(C)n3-c3sc4c(c32)CC(C(=O)N2CCOCC2)C4)c1 (stereo not shown) [Example 62, 9-(2-Chloro-5-methoxyphenyl)-3-methyl-13-(morpholine-4-carbonyl)-16-thia-2,4,5,8-tetraazatetracyclo-[8.6.0.0^2,6.0^11,15]hexadeca-1(10),3,5,11(15)-tetraene] | 94 nM | > 118 µg/mL | – | –
Cc1ccccc1[C@@H]1NCc2nnc(C)n2-c2sc3c(c21)C[C@H](C(=O)N1CCOCC1)C3 [Example 64, (9S,13S)-3-methyl-9-(2-methylphenyl)-13-(morpholine-4-carbonyl)-16-thia-2,4,5,8-tetraazatetracyclo[8.6.0.0^2,6.0^11,15]-hexadeca-1(10),3,5,11(15)-tetraene] | 210 nM | > 108 µg/mL | – | –
Cc1nnc2n1-c1sc3c(c1C(c1ccccc1Cl)NC2)C[C@H](C(=O)NC(C)(C)CO)C3 (stereo partly drawn) [Example 65, (13S)-9-(2-Chlorophenyl)-N-(1-hydroxy-2-methylpropan-2-yl)-3-methyl-16-thia-2,4,5,8-tetraazatetracyclo-[8.6.0.0^2,6.0^11,15]hexadeca-1(10),3,5,11(15)-tetraene-13-carboxamide] | 11 nM | > 147 µg/mL | – | –
Cc1nnc2n1-c1sc3c(c1C(c1ccccc1Cl)NC2)CC(C(=O)N1CCCC2(CC2)C1)C3 (stereo not shown) [Example 66, 13-{5-Azaspiro[2.5]octane-5-carbonyl}-9-(2-chlorophenyl)-3-methyl-16-thia-2,4,5,8-tetraazatetracyclo-[8.6.0.0^2,6.0^11,15]hexadeca-1(10),3,5,11(15)-tetraene] | 2.7 nM | – | – | > 124 µg/mL
CCc1nnc2n1-c1sc3c(c1C(c1ccccc1Cl)NC2)CC(C(=O)N1CCOCC1)C3 (stereo not shown) [Example 67] | 73 nM | > 121 µg/mL | – | –
CCc1nnc2n1-c1sc3c(c1[C@@H](c1ccccc1Cl)NC2)C[C@H](C(=O)N1CCOCC1)C3 [Example 68] | > 999 nM | > 116 µg/mL | – | –
CCc1nnc2n1-c1sc3c(c1[C@H](c1ccccc1Cl)NC2)C[C@H](C(=O)N1CCOCC1)C3 [Example 69] | 35 nM | > 121 µg/mL | – | –
CCCN(CCC)C(=O)[C@@H]1Cc2sc3c(c2C1)[C@@H](c1ccccc1Cl)NCc1nnc(C)n1-3 [Example 72, (9S,13S)-9-(2-Chlorophenyl)-3-methyl-N,N-dipropyl-16-thia-2,4,5,8-tetraazatetracyclo[8.6.0.0^2,6.0^11,15]hexadeca-1(10),3,5,11(15)-tetraene-13-carboxamide] | 8.1 nM | > 101 µg/mL | – | –
CCCN(CCC)C(=O)[C@@H]1Cc2sc3c(c2C1)[C@H](c1ccccc1Cl)NCc1nnc(C)n1-3 [Example 73, (9R,13S)-9-(2-chlorophenyl)-3-methyl-N,N-dipropyl-16-thia-2,4,5,8-tetraazatetracyclo[8.6.0.0^2,6.0^11,15]hexadeca-1(10),3,5,11(15)-tetraene-13-carboxamide] | 0.7 nM | > 110 µg/mL | – | –
Cc1nnc2n1-c1sc3c(c1C(c1ccccc1)NC2)CC(C(=O)N1CCOCC1)C3 (stereo not shown) [Example 74] | 252 nM | > 104 µg/mL | – | –
O=C(C1Cc2sc3c(c2C1)C(c1ccccc1Cl)NCc1nnc(C2CC2)n1-3)N1CCOCC1 (stereo not shown) [Example 81, 9-(2-Chlorophenyl)-3-cyclopropyl-13-(morpholine-4-carbonyl)-16-thia-2,4,5,8-tetraazatetracyclo[8.6.0.0^2,6.0^11,15]hexadeca-1(10),3,5,11(15)-tetraene] | 224 nM | 68 µg/mL (≈ 137 µM) | – | –
